From paper PMC7898037, “Improving mitochondria and ER stability helps eliminate upper motor neuron degeneration that occurs due to mSOD1 toxicity and TDP‐43 pathology” (Clinical and Translational Medicine, 2021)

Experiments:
[1] = tested on: hSOD1^G93A‐UeGFP mice; experiment: Hanging wire test (max 60 s), hSOD1^G93A‐UeGFP mice; assay type: in vivo; set-up: Mean Diff. (wire hanging), vehicle vs. NU-9 / Mean (wire hanging): unit not given here; settings: for Mean Diff. (wire hanging), vehicle vs. NU-9: hSOD1G93A-UeGFP vehicle vs. NU-9 100 mg/kg/day; for wire hanging, Average / Mean (wire hanging): hSOD1G93A-UeGFP
Procedure: (§1) hSOD1^G93A‐UeGFP, prpTDP‐43^A315T‐UeGFP and WT‐UeGFP mice were weighed and the required NU‐9 dose per weight was calculated (20 or 100 mg/kg), which was administered once daily by oral gavage, starting at postnatal day (P)60 and continuing until P120. Animals from the untreated group received the vehicle (NMP and olive oil) only. For oral administration purposes, 20 ga × 38 mm plastic feeding tubes were used (Instech Laboratories, Inc). The gavage tip was inserted into the mouth directly over the tongue and into the pharynx. While observing the swallowing reflex, the tip was safely and smoothly slid into the esophagus. Once the administration was completed, the gavage tip was pulled straight out.
Behavior data were collected from hSOD1^G93A‐UeGFP and WT‐UeGFP mice (starting at P60 and every 7 days until P116) and from prpTDP‐43^A315T‐UeGFP mice (at P60, P90, and P120) with the following number of mice for each group: WT‐UeGFP vehicle (n = 10), hSOD1^G93A‐UeGFP vehicle (n = 6), WT‐UeGFP 20 mg/kg/day NU‐9 (n = 5), hSOD1^G93A‐UeGFP 20 mg/kg/day NU‐9 (n = 7), WT‐UeGFP 100 mg/kg/day NU‐9 (n = 11), hSOD1^G93A‐UeGFP 100 mg/kg/day NU‐9 (n = 9), prpTDP‐43^A315T‐UeGFP untreated (n ≥ 3), and prpTDP‐43^A315T‐UeGFP 100 mg/kg/day NU‐9 (n = 4) (Table S3).
Mice were placed on a wire mesh, which was then inverted and suspended above the home cage; the time when the animal fell was recorded. This test was performed three times for a maximum of 60 s each session, with a 1‐min rest period between each trial. The average performance for each session is presented as the average of the three trials.

[2] = tested on: UMN apical dendrites of hSOD1^G93A‐UeGFP mice; experiment: UMN apical dendrites with vacuoles, hSOD1^G93A‐UeGFP mice; assay type: in vivo; settings: for Mean, Fig. 4G (UMN apical dendrites with vacuoles): hSOD1G93A-UeGFP mice; for percentage of UMNs with vacuolated apical dendrites: hSOD1^G93A‐UeGFP mice
Procedure: as §1
Mice were deeply anesthetized using ketamine (90 mg/kg) with xylazine (10 mg/kg), and transcardially perfused with 4% PFA in PBS. The brains were removed intact and postfixed (4% PFA, overnight) and stored in PBS with sodium azide (0.01%) at 4°C. Sections were cut in a coronal (50 µm) plane using a vibratome (Leica) and processed for immunocytochemical analyses.
The antibodies used are as follows: anti‐GFP (1:1000, Invitrogen; or 1:1000, Abcam) and anti‐misfolded SOD1 (B8H10, 1:250, Médimabs). Briefly, sections were treated with blocking solution (PBS, 0.05% BSA, 2% FBS, 1% Triton X‐100, and 0.1% saponin) for 30 min at room temperature and incubated with primary antibody diluted in blocking solution overnight at 4°C. Appropriate secondary fluorescent antibodies (1:500, AlexaFluor‐conjugated, Invitrogen) were added to the blocking solution at room temperature for 2 h in the dark.

`C[C@H](Oc1cc(C(F)(F)F)cc(C(F)(F)F)c1)C1CC(=O)CC(=O)C1` [NU‐9] was tested, and the “Mean Diff. (wire hanging), vehicle vs. NU-9” value ([1]; P74) was -7.519, the “Mean Diff. (wire hanging), vehicle vs. NU-9” value ([1]; P81) was -5.148 and the “Mean Diff. (wire hanging), vehicle vs. NU-9” value ([1]; P88) was -9.13. The “Mean Diff. (wire hanging), vehicle vs. NU-9” value ([1]; P95) was -7.704, the “Mean Diff. (wire hanging), vehicle vs. NU-9” value ([1]; P102) was -10.96 and the “Mean Diff. (wire hanging), vehicle vs. NU-9” value ([1]; P109) was -14.67. For the same molecule, the “Mean Diff. (wire hanging), vehicle vs. NU-9” value ([1]; P116) was -28.54, the “wire hanging, Average” value ([1]; NU-9 20 mg/kg/day po, P60) was 55.1905 s and the “wire hanging, Average” value ([1]; NU-9 20 mg/kg/day po, P67) was 51.7143 s. The “wire hanging, Average” value ([1]; NU-9 20 mg/kg/day po, P74) was 55.2381 s, the “wire hanging, Average” value ([1]; NU-9 20 mg/kg/day po, P81) was 54.0952 s and the “wire hanging, Average” value ([1]; NU-9 20 mg/kg/day po, P88) was 52.9524 s. For the same molecule, the “wire hanging, Average” value ([1]; NU-9 20 mg/kg/day po, P95) was 54.8095 s, the “wire hanging, Average” value ([1]; NU-9 20 mg/kg/day po, P102) was 43 s and the “wire hanging, Average” value ([1]; NU-9 20 mg/kg/day po, P109) was 37.4762 s. For the same molecule, the “wire hanging, Average” value ([1]; NU-9 20 mg/kg/day po, P116) was 27.3333 s, the “Mean (wire hanging)” value ([1]; NU-9 20 mg/kg/day, P60) was 55.19 and the “Mean (wire hanging)” value ([1]; NU-9 20 mg/kg/day, P67) was 51.71. The “Mean (wire hanging)” value ([1]; NU-9 20 mg/kg/day, P74) was 55.24, the “Mean (wire hanging)” value ([1]; NU-9 20 mg/kg/day, P81) was 54.1 and the “Mean (wire hanging)” value ([1]; NU-9 20 mg/kg/day, P88) was 52.95. The “Mean (wire hanging)” value ([1]; NU-9 20 mg/kg/day, P95) was 54.81, the “wire hanging, Average” value ([1]; NU-9 100 mg/kg/day po, P60) was 60 s and the “wire hanging, Average” value ([1]; NU-9 100 mg/kg/day po, P67) was 54.6667 s. For the same molecule, the “wire hanging, Average” value ([1]; NU-9 100 mg/kg/day po, P74) was 59.2963 s, the “wire hanging, Average” value ([1]; NU-9 100 mg/kg/day po, P81) was 58.1481 s and the “wire hanging, Average” value ([1]; NU-9 100 mg/kg/day po, P88) was 59.6296 s. For the same molecule, the “wire hanging, Average” value ([1]; NU-9 100 mg/kg/day po, P95) was 57.2593 s, the “wire hanging, Average” value ([1]; NU-9 100 mg/kg/day po, P102) was 53.2963 s and the “wire hanging, Average” value ([1]; NU-9 100 mg/kg/day po, P109) was 58.8889 s. The “wire hanging, Average” value ([1]; NU-9 100 mg/kg/day po, P116) was 51.1481 s, the “Mean (wire hanging)” value ([1]; NU-9 100 mg/kg/day, P60) was 60 and the “Mean (wire hanging)” value ([1]; NU-9 100 mg/kg/day, P67) was 54.67. The “Mean (wire hanging)” value ([1]; NU-9 100 mg/kg/day, P74) was 59.3, the “Mean (wire hanging)” value ([1]; NU-9 100 mg/kg/day, P81) was 58.15 and the “Mean (wire hanging)” value ([1]; NU-9 100 mg/kg/day, P88) was 59.63. The “Mean (wire hanging)” value ([1]; NU-9 100 mg/kg/day, P95) was 57.26, the “hanging wire test, latency to fall” value ([1]; hSOD1^G93A‐UeGFP mice, 100 mg/kg/day, P102) was 53.3 ± 2.9 s and the “Mean, Fig. 4G (UMN apical dendrites with vacuoles)” value ([2]; NU-9 20 mg/kg/day) was 43.86. For the same molecule, the “Mean, Fig. 4G (UMN apical dendrites with vacuoles)” value ([2]; NU-9 100 mg/kg/day) was 23.28, the “Mean Diff., Fig. 4G, GS Vehicle vs. GS NU-9 (20)” value ([2]; hSOD1G93A-UeGFP vehicle minus NU-9 20 mg/kg/day, Tukey's multiple comparisons test) was 32.38 and the “Mean Diff., Fig. 4G, GS Vehicle vs. GS NU-9 (100)” value ([2]; hSOD1G93A-UeGFP vehicle minus NU-9 100 mg/kg/day, Tukey's multiple comparisons test) was 52.96. For the same molecule, the “percentage of UMNs with vacuolated apical dendrites” value ([2]; 20 mg/kg/day oral gavage P60–P120) was 44% ± 7% and the “percentage of UMNs with vacuolated apical dendrites” value ([2]; 100 mg/kg/day oral gavage P60–P120) was 23% ± 10%.
